Data taken from patent publication US12552846B2, “Modified BCL9 mimetic peptides” (Sapience Therapeutics, Inc., priority 2019, dated 2026).
Square brackets hold non-standard residues; d marks the D form. Peptide text beside a SMILES is read from it. d1Nal = N[C@H](Cc1cccc2ccccc12)C(=O)O; dOrn = NCCC[C@@H](N)C(=O)O

System: HL60 promyelocytic leukemia cells
Assay: Cytotoxicity assay in HL60 cells (Annexin V FITC / PI flow cytometry)
Format: cell-based
Details: 48 hours, 0-80 μM, % Viability (Annexin V low, PI low)
Description: We examined the cytotoxicity of peptides BCL-26 and BCL-27 using an assay in HL60 promyelocytic leukemia cells. HL60 PML suspension cells were set at a density of 3.5×10^3 cells/well in 150 μL of RPMI+1.5% fetal bovine serum (FBS) in a 96 well dish. BCL-26 or BCL-27, reconstituted at a concentration of 10 mg/mL in 20 mM His, pH 7.5, was added to each well at a volume of 50 μL to a final concentration range of 0-80 μM. Cells were incubated with peptide for 48 hours at 37° C. Cell viability was quantified by flow cytometry using abcam Annexin V FITC apoptosis detection kit. Briefly, cells were washed with PBS and resuspended in 1× assay buffer containing Annexin V FITC and propidium iodide (PI). Annexin V detects apoptotic cells, and PI stains dead cells. After staining, apoptotic cells show green fluorescence, dead cells show red and green fluorescence, and live cells show little or no fluorescence. Cells were selected for analysis based on forward scatter (FSC) vs. side scatter (SSC), and analyzed by BD Accuri C6 Plus flow cytometer to detect Annexin V-FITC binding (Ex=488 nm; Em=530 nm) using FITC signal detector and PI staining by the phycoerythrnn emission signal detector. Percentage of Annexin V^low and PI^low were quantified and presented as % Viability.
We examined the cytotoxicity of additional retro inverso and mixed chirality BCL9 mimetic peptides in HL60 cells using the assay described above.

Row | SMILES | EC50 [µM]
1 | CC(C)C[C@@H](NC(=O)[C@@H](CCCN)NC(=O)[C@@H](C)NC(=O)[C@@H](CC(C)C)NC(=O)[C@@H](CCC(N)=O)NC(=O)[C@@H](CCCN)NC(=O)[C@@H](C)NC(=O)[C@@H](CC(C)C)NC(=O)[C@@H](Cc1c[nH]c2ccccc12)NC(=O)[C@@H](Cc1c[nH]c2ccccc12)NC(=O)CNC(=O)[C@@H](CCCNC(=N)N)NC(=O)CNC(=O)[C@@H](CC(=O)O)NC(=O)[C@@H](CO)NC(=O)[C@H]1CCCN1)C(=O)N[C@H](C)C(=O)N[C@H](CCC(N)=O)C(=O)N[C@H](CC(C)C)C(=O)N[C@H](C)C(=O)N[C@H](CCCN)C(=O)N[C@H](CC(C)C)C(=O)N[C@@H](C(=O)N1CCC[C@@H]1C(=O)N[C@@H](C(=O)O)C(C)C)[C@H](C)O [BCL-137] (H-[dP][dS][dD]G[dR]G[dW][dW][dL][dA][dOrn][dQ][dL][dA][dOrn][dL][dA][dQ][dL][dA][dOrn][dL][dT][dP][dV]-OH; N-terminus and C-terminus assumed) | < 2
2 | CC(C)C[C@@H](NC(=O)[C@@H](CCCNC(=N)N)NC(=O)[C@@H](C)NC(=O)[C@@H](CC(C)C)NC(=O)[C@@H](CCC(N)=O)NC(=O)[C@@H](CCCNC(=N)N)NC(=O)[C@H](NC(=O)[C@@H](CC(C)C)NC(=O)[C@@H](Cc1c[nH]c2ccccc12)NC(=O)[C@H](N)Cc1c[nH]c2ccccc12)C(C)C)C(=O)N[C@H](C)C(=O)N[C@H](CCC(N)=O)C(=O)N[C@H](CC(C)C)C(=O)N[C@H](C)C(=O)N[C@H](CCCCN)C(=O)N[C@H](CC(C)C)C(=O)N[C@@H](C(=O)N1CCC[C@@H]1C(=O)N[C@@H](C(=O)O)C(C)C)[C@H](C)O [BCL-91a] (H-[dW][dW][dL][dV][dR][dQ][dL][dA][dR][dL][dA][dQ][dL][dA][dK][dL][dT][dP][dV]-OH; N-terminus and C-terminus assumed) | < 2
3 | CC(C)C[C@@H](NC(=O)[C@@H](CCCNC(=N)N)NC(=O)[C@@H](C)NC(=O)[C@@H](CC(C)C)NC(=O)[C@@H](CCC(N)=O)NC(=O)[C@@H](CCCNC(=N)N)NC(=O)[C@H](NC(=O)[C@@H](CC(C)C)NC(=O)[C@@H](Cc1c[nH]c2ccccc12)NC(=O)[C@H](CCCNC(=N)N)NC(=O)[C@H](N)Cc1ccccc1)C(C)C)C(=O)N[C@H](C)C(=O)N[C@H](CCC(N)=O)C(=O)N[C@H](CC(C)C)C(=O)N[C@H](C)C(=O)N[C@H](CCCCN)C(=O)N[C@H](CC(C)C)C(=O)N[C@@H](C(=O)N1CCC[C@@H]1C(=O)N[C@@H](C(=O)O)C(C)C)[C@H](C)O [BCL-130] (H-[dF]R[dW][dL][dV][dR][dQ][dL][dA][dR][dL][dA][dQ][dL][dA][dK][dL][dT][dP][dV]-OH; N-terminus and C-terminus assumed) | < 2
4 | CC(C)C[C@@H](NC(=O)[C@@H](Cc1c[nH]c2ccccc12)NC(=O)[C@H](Cc1c[nH]c2ccccc12)NC(=O)[C@H](N)Cc1ccccc1)C(=O)N[C@H](C)C(=O)N[C@H](CCCNC(=N)N)C(=O)N[C@H](CCC(N)=O)C(=O)N[C@H](CC(C)C)C(=O)N[C@H](C)C(=O)N[C@H](CCCNC(=N)N)C(=O)N[C@H](CC(C)C)C(=O)N[C@H](C)C(=O)N[C@H](CCC(N)=O)C(=O)N[C@H](CC(C)C)C(=O)N[C@H](C)C(=O)N[C@H](CCCCN)C(=O)N[C@H](CC(C)C)C(=O)N[C@@H](C(=O)N1CCC[C@@H]1C(=O)N[C@@H](C(=O)O)C(C)C)[C@H](C)O [BCL-101] (H-[dF]W[dW][dL][dA][dR][dQ][dL][dA][dR][dL][dA][dQ][dL][dA][dK][dL][dT][dP][dV]-OH; N-terminus and C-terminus assumed) | < 2
5 | CC(C)C[C@@H](NC(=O)[C@@H](Cc1c[nH]c2ccccc12)NC(=O)[C@H](N)Cc1c[nH]c2ccccc12)C(=O)N[C@H](C)C(=O)N[C@H](CCCNC(=N)N)C(=O)N[C@H](CCC(N)=O)C(=O)N[C@H](CC(C)C)C(=O)N[C@H](CCC(=O)O)C(=O)N[C@H](CCCNC(=N)N)C(=O)N[C@H](CC(C)C)C(=O)N[C@H](CCCNC(=N)N)C(=O)N[C@H](CCCNC(=N)N)C(=O)N[C@H](CC(C)C)C(=O)N[C@H](C)C(=O)N[C@H](CCCCN)C(=O)N[C@H](CC(C)C)C(=O)N[C@@H](C(=O)N1CCC[C@@H]1C(=O)N[C@@H](C(=O)O)C(C)C)[C@H](C)O [BCL-88] (H-[dW][dW][dL][dA][dR][dQ][dL][dE][dR][dL][dR][dR][dL][dA][dK][dL][dT][dP][dV]-OH; N-terminus and C-terminus assumed) | < 2
6 | CC(C)C[C@@H](NC(=O)[C@@H](Cc1c[nH]c2ccccc12)NC(=O)[C@H](N)Cc1c[nH]c2ccccc12)C(=O)N[C@H](C)C(=O)N[C@H](CCCNC(=N)N)C(=O)N[C@H](CCC(N)=O)C(=O)N[C@H](CC(C)C)C(=O)N[C@H](C)C(=O)N[C@H](CCCNC(=N)N)C(=O)N[C@H](CC(C)C)C(=O)N[C@H](C)C(=O)N[C@H](CCC(N)=O)C(=O)N[C@H](CC(C)C)C(=O)N[C@H](C)C(=O)N[C@H](CCCNC(=N)N)C(=O)N[C@H](CCC(=O)O)C(=O)N[C@H](CCCNC(=N)N)C(=O)N[C@H](Cc1c[nH]cn1)C(=O)N[C@H](CCC(=O)O)C(=O)N[C@H](CC(C)C)C(=O)N[C@H](CCC(N)=O)C(=O)N[C@H](CCC(=O)O)C(=O)N[C@H](CCC(N)=O)C(=O)N[C@H](CO)C(=O)N[C@H](CC(C)C)C(=O)N[C@H](CCCCN)C(=O)N[C@H](CC(C)C)C(=O)N[C@@H](C(=O)N1CCC[C@@H]1C(=O)N[C@@H](C(=O)O)C(C)C)[C@H](C)O [BCL-84] (H-[dW][dW][dL][dA][dR][dQ][dL][dA][dR][dL][dA][dQ][dL][dA][dR][dE][dR][dH][dE][dL][dQ][dE][dQ][dS][dL][dK][dL][dT][dP][dV]-OH; N-terminus and C-terminus assumed) | < 2
7 | CC(C)C[C@@H](NC(=O)[C@@H](CCC(N)=O)NC(=O)[C@@H](C)NC(=O)[C@@H](CC(C)C)NC(=O)[C@@H](CCCNC(=N)N)NC(=O)[C@@H](C)NC(=O)[C@@H](CC(C)C)NC(=O)[C@@H](CCC(N)=O)NC(=O)[C@@H](CCCNC(=N)N)NC(=O)[C@@H](C)NC(=O)[C@@H](CC(C)C)NC(=O)[C@@H](Cc1c[nH]c2ccccc12)NC(=O)[C@@H](Cc1c[nH]c2ccccc12)NC(=O)CNC(=O)[C@@H](CCCNC(=N)N)NC(=O)CNC(=O)[C@@H](CC(=O)O)NC(=O)[C@@H](CO)NC(=O)[C@H]1CCCN1)C(=O)N[C@H](C)C(=O)O [BCL-92] (H-[dP][dS][dD]G[dR]G[dW][dW][dL][dA][dR][dQ][dL][dA][dR][dL][dA][dQ][dL][dA]-OH; N-terminus and C-terminus assumed) | 2 to 10
8 | CC(C)C[C@@H](NC(=O)[C@@H](Cc1c[nH]c2ccccc12)NC(=O)[C@H](N)Cc1cccc2ccccc12)C(=O)N[C@H](C)C(=O)N[C@H](CCCNC(=N)N)C(=O)N[C@H](CCC(N)=O)C(=O)N[C@H](CC(C)C)C(=O)N[C@H](C)C(=O)N[C@H](CCCNC(=N)N)C(=O)N[C@H](CC(C)C)C(=O)N[C@H](C)C(=O)N[C@H](CCC(N)=O)C(=O)N[C@H](CC(C)C)C(=O)N[C@H](C)C(=O)N[C@H](CCCCN)C(=O)N[C@H](CC(C)C)C(=O)N[C@@H](C(=O)N1CCC[C@@H]1C(=O)N[C@@H](C(=O)O)C(C)C)[C@H](C)O [BCL-77] (H-[d1Nal][dW][dL][dA][dR][dQ][dL][dA][dR][dL][dA][dQ][dL][dA][dK][dL][dT][dP][dV]-OH; N-terminus and C-terminus assumed) | < 2
